# Source: patent publication US10351566B2, “Therapeutic compounds for pain and synthesis thereof” (priority 2015, dated 2019)
# Entries after “also recorded” stand apart in the source; their conditions may differ. Like-named read-outs stand apart in the source and are kept apart here.
# Experiments:
# [1] = system: Taxol-induced neuropathic pain; assay: Taxol-induced neuropathic pain in mice, oral route; assay type: in vivo
# Method: Study outline in brief: Animals were dosed daily with Taxol for a period of 8 consecutive days (Day 0 to Day 7). On study day 8, prior to drug dosing, the decrease in withdrawal force (tactile allodynia) was verified by applying the von Frey test. After assigning the animals to their treatment groups, the animals were treated daily for a period of 5 days with either vehicle or Formula 1 at different doses. Gabapentin at a dose of 150 mg/kg was dosed only on days of testing (day 8 and day 14).
# The activity of Formula 1 following oral administration was assessed using the Taxol model (see Study Outline in section 7.1). […] Gabapentin dosed at 150 mg/kg was active for a period of 4 h post-dosing.
# [2] = system: Taxol-induced neuropathic pain; assay: Taxol-induced neuropathic pain in the rat, per oral; assay type: in vivo; conditions: Taxol rats
# Method: Study outline in brief: Taxol was administered daily for a period of 17 days (day 0 to day 16). On day 16, the withdrawal force was evaluated using the von Fey test. The animals experienced a reduction of more than 60% in the withdrawal force following repeated Taxol dosing. After a single treatment with Formula 1 at a dose of 50 mg/kg, a full reversal was recorded, i.e. the withdrawal force was similar to the values recorded prior to Taxol dosing commencement. The duration of the analgesic activity was at least 6 h.
# [3] = in vitro; assay type: in vitro ADME; conditions: 1 μM, read-out: plasma protein bound (converted)
# Method: The plasma protein binding assay for Formula 1 was conducted in mouse and human plasma at a single concentration of 1 μM using the method of equilibrium dialysis. […] The plasma protein binding of the compound is acceptable.
# [4] = in vivo; set-up: species or system mice; conditions: for HL_Lambda_z / Cl_F_obs / Vz_F_obs / AUC(0-t) / Cmax / Tmax / AUC(0-inf): Mean; for Kp / AUC(0-t) / Cmax / Tmax / AUC(0-inf): mouse, in vivo; for Kp: po, 50 mg/kg, mice, oral 50 mg/kg, 5 min to 8 h; for AUC(0-inf): read-out: AUCINF_obs
# Method: Tissue distribution studies were conducted by administration of the compound to mice at a dose of 50 mg/kg orally and intravenously. Plasma and tissue samples were collected at various times from 5 min to 8 h. The tissue-to-plasma concentration ratios measured after oral dosing were: 0.6 (range: 0.3-1.1, brain), 3.2 (range: 1.9-5.0, spinal cord), 6.5 (range: 0.9-10.3, liver), 24.0 (range: 5.1-59.9, lung), 6.6 (range: 1.2-14.9, heart), 16.9 (range: 4.3-26.8, kidney), 77.5 (range: 11.5-341, spleen), 29.2 (range: 6.3-50.2, cecum), 67.4 (range: 11.6-326, colon), 5.2 (range: 2.1-8.0, testes). The concentration-time profiles of the compound in these tissues generally followed those in plasma. The tissue-to-plasma concentration ratios in these selected tissues are generally within the normal ranges of the marketed drugs.
# There are complex equilibria between the compound concentrations in blood, CSF and spinal cord. A high concentration in the CSF would yield a large concentration in the spinal cord. Since Formula 1 is a Pgp substrate and highly tissue-bound, its higher concentrations in the spinal cord tissue compared to the brain tissue are not surprising (Table 2).
# [5] = Tolerability / repeated dosing safety in mice; assay type: in vivo; conditions: for Findings: Mice
# Method: The tolerability of Formula 1 was evaluated in mice and rats.
# [6] = assay type: in vivo; conditions: mice
# Method: Fecal excretion of the parent compound was evaluated following oral administration of Formula 1 in mice at a dose of 50 mg/kg and intravenous administration at a dose of 5 mg/kg. Peak concentrations in feces were 150 μg/g and 33 μg/g from oral and intravenous dosing, respectively. These peak concentrations were generally achieved within 1 h post-oral dosing and within 5 min post-intravenous doing. The concentrations remained high (greater than 1 μg/g) even after 8 h post-dosing by both administration routes (FIG. 18).
# [7] = assay type: in vitro ADME, mouse, rat, human
# Method: Metabolic stability studies in mouse, rat and human liver microsomes were performed at a compound concentration of 1 μM.
# A total of five metabolites were detected in all three species. […] Due to the similarity in the plasma stability of the compound in the mouse and the human plasma, and toxicology studies would preferably be performed in the mouse.
# [8] = Brain, second block of the table, route not given
# [9] = Plasma, second block of the table, route not given
# [10] = Spinal Cord, second block of the table, route not given
smiles,measurement,setting,value
"CC(C)(C)C(=O)O[C@@H]1[C@@H]2[C@H]3C[C@H](C[C@@H]1N3Cc1ccccn1)CN2C(=O)CC(F)(F)F (relative stereo) [Formula 1, (2S*,3S*,3aS*,6R*,7aR*)-1-(pyridin-2-ylmethyl)-4-(3,3,3-trifluoropropanoyl)octahydro-1H-2,6-methanopyrrolo[3,2-b]pyridin-3-yl pivalate]",withdrawal force,"[1]; Taxol mice, oral 50 mg/kg, 2 h post-single administration, study day 8",active in fully reversing the withdrawal force
same,withdrawal force,"[1]; Taxol mice, oral 50 mg/kg, 24 h post-dosing (study day 14 pre-dosing)",significantly active
same,tolerance effect,"[1]; Taxol mice, oral 50 mg/kg, repeated daily dosing",No tolerance effect was noted
same,heat hyperalgesia (hotplate test),"[1]; Taxol mice, oral 50 mg/kg, 50 mg/kg",No activity was found; also recorded: not statistically different from the vehicle-treated group
same,Dose of maximum activity,"[1]; Taxol model, PO, mice",<50 mg/kg
same,Duration of activity at maximum effect,"[1]; Taxol model, PO, mice",24 H
same,Level of activity (% of maximum effect-baseline),"[1]; Taxol model, PO, mice",100%
same,Peak of activity (T),"[1]; Taxol model, PO, mice",2-6 H
same,body weight loss following Taxol dosing,[2],the rate of weight loss was reduced
same,duration of the analgesic activity,[2]; oral 50 mg/kg,at least 6 h
same,withdrawal force vs. vehicle 24 h post-dosing,[2]; oral 50 mg/kg,no significant difference
same,withdrawal force (von Frey),[2]; single oral treatment 50 mg/kg,full reversal
same,fraction unbound,[3]; human plasma,0.08
same,fraction unbound,[3]; mouse plasma,0.16
same,HL_Lambda_z,[4]; [8],0.74 h
same,Cl_F_obs,"[4]; Plasma, SC",7.2175 L/h/kg
same,HL_Lambda_z,"[4]; Plasma, SC",0.37 h
same,Vz_F_obs,"[4]; Plasma, SC",3.84783 L/kg
same,Cl_F_obs,[4]; [9],40.333 L/h/kg
same,HL_Lambda_z,[4]; [9],1.20 h
same,Vz_F_obs,[4]; [9],72.1615 L/kg
same,HL_Lambda_z,"[4]; Spinal Cord, SC",0.53 h
same,HL_Lambda_z,[4]; [10],1.56 h
same,Kp,"[4]; male, read-out: tissue-to-plasma concentration ratio, testes",5.2
same,Kp,"[4]; male, read-out: tissue-to-plasma concentration ratio, testes, range",2.1 to 8
same,AUC(0-t),[4]; [8],2.77 µg·h/mL
same,Cmax,[4]; [8],6.75 µg/mL
same,Tmax,[4]; [8],4.8 min
same,AUC(0-t),[4]; [9],2.59 µg·h/mL
same,Cmax,[4]; [9],3.08 µg/mL
same,AUC(0-inf),[4]; [9],2.61 µg·h/mL
same,AUC(0-t),[4]; [10],15.5 µg·h/mL
same,Cmax,[4]; [10],30 µg/mL
same,Kp,"[4]; read-out: tissue-to-plasma concentration ratio, brain",0.6
same,Kp,"[4]; read-out: tissue-to-plasma concentration ratio, brain, range",0.3 to 1.1
same,Kp,"[4]; read-out: tissue-to-plasma concentration ratio, cecum",29.2
same,Kp,"[4]; read-out: tissue-to-plasma concentration ratio, cecum, range",6.3 to 50.2
same,Kp,"[4]; read-out: tissue-to-plasma concentration ratio, colon",67.4
same,Kp,"[4]; read-out: tissue-to-plasma concentration ratio, colon, range",11.6 to 326
same,Kp,"[4]; read-out: tissue-to-plasma concentration ratio, heart",6.6
same,Kp,"[4]; read-out: tissue-to-plasma concentration ratio, heart, range",1.2 to 14.9
same,Kp,"[4]; read-out: tissue-to-plasma concentration ratio, kidney",16.9
same,Kp,"[4]; read-out: tissue-to-plasma concentration ratio, kidney, range",4.3 to 26.8
same,Kp,"[4]; read-out: tissue-to-plasma concentration ratio, liver",6.5
same,Kp,"[4]; read-out: tissue-to-plasma concentration ratio, liver, range",0.9 to 10.3
same,Kp,"[4]; read-out: tissue-to-plasma concentration ratio, lung",24
same,Kp,"[4]; read-out: tissue-to-plasma concentration ratio, lung, range",5.1 to 59.9
same,Kp,"[4]; read-out: tissue-to-plasma concentration ratio, spinal cord",3.2
same,Kp,"[4]; read-out: tissue-to-plasma concentration ratio, spinal cord, range",1.9 to 5
same,Kp,"[4]; read-out: tissue-to-plasma concentration ratio, spleen",77.5
same,Kp,"[4]; read-out: tissue-to-plasma concentration ratio, spleen, range",11.5 to 341
same,AUC(0-t),"[4]; sc, Brain",0.79 µg·h/mL
same,Cmax,"[4]; sc, Brain",1.38 µg/mL
same,AUC(0-t),"[4]; sc, Plasma",1.38 µg·h/mL
same,Cmax,"[4]; sc, Plasma",1.9 µg/mL
same,AUC(0-t),"[4]; sc, Spinal Cord",6.21 µg·h/mL
same,Cmax,"[4]; sc, Spinal Cord",11.9 µg/mL
same,Tmax,"[4]; Plasma, SC",15 min
same,AUC(0-inf),"[4]; Plasma, SC",1.39 µg·h/mL
same,Findings,"[5]; IP, 10 mg/kg, 31 days",NPF
same,Findings,"[5]; IP, 30 mg/kg, 5 days",NPF
same,Findings,"[5]; PO, 50 mg/kg, 5 days",NPF
same,Findings,"[5]; SC, 60 mg/kg, 5 days",NPF
same,tolerability,"[5]; mice, 5 days intraperitoneal dosing at 30 mg/kg",well tolerated
same,tolerability,"[5]; mice, 5 days oral dosing at 50 mg/kg",well tolerated
same,tolerability,"[5]; mice, 5 days subcutaneous dosing at 60 mg/kg",well tolerated
same,tolerability,"[5]; mouse, single dose of 100 mg/kg",tolerated
same,concentration in feces after 8 h post-dosing,[6]; intravenous 5 mg/kg,greater than 1 μg/g
same,peak concentration in feces,[6]; intravenous 5 mg/kg,33 µg/g
same,time to peak concentration in feces,[6]; intravenous 5 mg/kg,≤ 5 min
same,concentration in feces after 8 h post-dosing,[6]; oral 50 mg/kg,greater than 1 μg/g
same,peak concentration in feces,[6]; oral 50 mg/kg,150 µg/g
same,time to peak concentration in feces,[6]; oral 50 mg/kg,≤ 60 min
same,unique human metabolites,[7],No unique human metabolites were detected
same,total metabolites detected,[7]; in all three species,five
same,major metabolic pathways,"[7]; mouse, rat and human liver microsomes",N-dealkylation and oxidation
